Numbered stars: 1 amine (or outer) side, 2 acyl side, 3 side chain; on linkers, the order of the positions; unused ones are H or OH. Square brackets hold non-standard residues; d marks the D form. Peptide text beside a SMILES is read from it. Phe(4-F)ψ(2,4-Thz) = O=C(c1csc([C@H](Cc2ccc(F)cc2)N[*:1])n1)[*:2]; hArg = N=C(N)NCCCC[C@H](N)C(=O)O; Cha = N[C@@H](CC1CCCCC1)C(=O)O; Sar = CNCC(=O)O
Tests used:
gel-filtered platelets [1] = assay: In vitro inhibition of thrombin-induced gel-filtered platelet aggregation; type: cell-based; details: agonist thrombin, gel-filtered human platelets, read-out: Platelet Aggregation** IC50 Thr*
Experimental: IN VITRO INHIBITION OF THROMBIN-INDUCED GEL-FILTERED PLATELET AGGREGATION ASSAY.
The percentage of platelet aggregation is calculated as an increase in light transmission of compound-treated platelet concentrate vs. control-treated platelet concentrate. Human blood is obtained from drug free, normal donors in tubes containing 0.13 M sodium citrate. Platelet rich plasma (PRP) is collected by centrifugation of whole blood at 200 x g for 10 min at 25°C. The PRP (5 mL) is gel filtered through Sepharose 2B (bed volume 50 mL), and the platelet count is adjusted to 2x10^7 platelets per sample. The following constituents are added to a siliconized cuvette: concentrated platelet filtrate and Tyrode's buffer (0.14 M NaCI, 0.0027 M KCI, 0.012 M NaHCO3, 0.76 mM Na2HPO4, 0.0055 M glucose, 2 mg/mL BSA and 5.0 mM HEPES @ pH 7.4) in an amount equal to 350 µl, 50 µl of 20 mM calcium and 50 µl of the test compound. Aggregation is monitored in a BIODATA aggregometer for the 3 min following the addition of agonist (thrombin 50 µl of 1 unit/mL).
The table contains IC50 values (µM) of the compounds in a thrombin receptor binding assay, and IC50 values (µM) against platelet aggregation stimulated by two agonists, thrombin or SFLLRN-NH2 (TRAP).
* µM ** Thrombin-induced aggregation of gel-filtered platelets in µM.

gel-filtered platelets [2] = assay: In vitro inhibition of SFLLRN-NH2 (TRAP)-stimulated gel-filtered platelet aggregation; type: cell-based; details: agonist SFLLRN-NH2 (TRAP), gel-filtered human platelets
thrombin receptor = biological target: T1, thrombin receptor (Homo sapiens, UniProt P25116); assay: In vitro thrombin receptor binding assay (CHRF membranes, tritiated 721-40); details: displacement of tritiated 721-40 (Ser-pFPhe-Har-Leu-Har-Lys-Tyr-NH2), read-out: Thr Receptor Binding IC50*
T1 construct: CHRF membranes (Jones, Biochim. Biophys. Acta 1992, 1136, 272) are thawed from -70°C; endogenous in cells; host or cells: CHRF cell membranes
T1 sequence (P25116 22-425): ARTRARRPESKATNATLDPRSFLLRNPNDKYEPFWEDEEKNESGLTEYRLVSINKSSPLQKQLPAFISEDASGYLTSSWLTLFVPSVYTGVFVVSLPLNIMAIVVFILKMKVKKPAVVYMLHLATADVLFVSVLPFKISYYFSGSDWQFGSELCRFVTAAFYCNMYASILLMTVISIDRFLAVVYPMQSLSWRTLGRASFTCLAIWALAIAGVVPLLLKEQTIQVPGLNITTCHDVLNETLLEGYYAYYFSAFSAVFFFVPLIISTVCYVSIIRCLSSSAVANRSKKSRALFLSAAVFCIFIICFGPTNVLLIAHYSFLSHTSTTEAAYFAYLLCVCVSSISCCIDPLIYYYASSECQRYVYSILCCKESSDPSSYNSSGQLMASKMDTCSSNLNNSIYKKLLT
Experimental: IN VITRO THROMBIN RECEPTOR BINDING ASSAY.
CHRF membranes (Jones, Biochim. Biophys. Acta 1992, 1136, 272) are thawed from -70°C, centrifuged at maximum speed for 5 min, washed twice with binding buffer (50 mM HEPES containing 5 mM MgCl2 and 0.1% BSA), and re-suspended in binding buffer ([…]). 100 µl of membranes are added to the 24-Wallac plates and delivered to the Tomtech apparatus. In a typical experiment, 6 µl of samples (from a 125 µg/mL intermediary plate, 20%DMSO) and 44 µl buffer are delivered to the plates (final conc. of compounds is 3.7 µg/mL, 0.6% DMSO). Similarly, 6 µl 20%DMSO and 44 µl buffer are delivered to both column 1 (NSB) and column 12 (TB). 10 µl Ser-pFPhe-Har-Leu-Har-Lys-Tyr-NH2 (721-40; 500 µM in deionized water) is added to column 1.50 µl tritiated 721-40 (specific activity 46 Ci/mmol) is added to all the wells. The plates are mixed well for 20 seconds, incubated for 30 min, and then harvested with 10 mM HEPES/138 mM NaCl using the Skatron harvester. The filters (GF/C Brandel FPXLR 296) are presoaked 3 h in 0.5% polyethylenimine in HEPES/0.1 M N-acetylglucosamine) are set in saran wrap and dried for 3 min in the microwave, and placed in sample bags (Wallac 1450-432). 4.5 mL scintillation fluid (Wallac, Betaplate Scint 1205-440) is added. The bags are sealed, placed in filter cassettes (Wallac 1450-104), and analyzed on the microbeta counter. […]

| Compound | IC50 (gel-filtered platelets [1]; Platelet) [µM] | IC50 (gel-filtered platelets [2]; Platelet) [µM] | IC50 (thrombin receptor) [µM] | IC50 (gel-filtered platelets [1]) [µM] | IC50 (gel-filtered platelets [2]) [µM] |
| --- | --- | --- | --- | --- | --- |
| CNCC(=O)N[C@@H](Cc1ccc(F)cc1)c1nc(C(=O)N[C@@H](CC2CCCCC2)C(=O)N[C@@H](CCCNC(=N)N)C(=O)NCc2ccccc2)co1 [Compound 1, 2-[1(S)-Sarcosineamido-2-(4-fluorophenyl)ethyl]oxazole-4-carboxy-cyclohexylalanyl-arginine benzylamide] | 25 | 10 | – | – | – |
| N=C(N)NCCC[C@H](NC(=O)[C@H](CC1CCCCC1)NC(=O)c1coc([C@H](Cc2ccc(F)cc2)NC(=O)CCN)n1)C(=O)NCc1ccccc1 [Compound 2, 2-[1(S)-β-Alanineamido-2-(4-fluorophenyl)ethyl]oxazole-4-carboxycyclohexylalanyl-arginine benzylamide] | 10 | 7 | – | – | – |
| CNCC(=O)N[C@@H](Cc1ccc(F)cc1)c1nc(C(=O)N[C@@H](CC2CCCCC2)C(=O)N[C@@H](CCCNC(=N)N)C(=O)NCCc2ccccc2)cs1 [Compound 3, 2-[1(S)-Sarcosineamido-2-(4-fluorophenyl)ethyl]thiazole-4-carboxycyclohexylalanyl-arginine phenethylamide] | 12 | 0.6 | – | – | – |
| CNCC(=O)N[C@@H](Cc1ccc(F)cc1)c1nc(C(=O)N[C@@H](CC2CCCCC2)C(=O)N[C@@H](CCCCNC(=N)N)C(=O)N[C@@H](Cc2ccccc2)C(N)=O)cs1 [Compound 4] (H-[Sar][Phe(4-F)ψ(2,4-Thz)][Cha][hArg]F-NH2) | 45 | – | 5 | – | – |
| CC[C@H](C)[C@H](N)C(=O)N[C@@H](Cc1ccc(F)cc1)c1nc(C(=O)N[C@@H](CC2CCCCC2)C(=O)N[C@@H](CCCNC(=N)N)C(=O)N[C@@H](Cc2ccccc2)C(N)=O)cs1 [Compound 5] (H-I[Phe(4-F)ψ(2,4-Thz)][Cha]RF-NH2) | 43 | 9 | – | – | – |
| CNCC(=O)N[C@@H](Cc1ccc(F)cc1)c1nc(C(=O)N[C@@H](CCCCN)C(=O)N[C@@H](CCCNC(=N)N)C(=O)NCCc2ccccc2)cs1 [Compound 6, 2-[1(S)-Sarcosineamido-2-(4-fluorophenyl)ethyl]thiazole-4-carboxy-lysyl-arginine phenethylamide] | 26 | 4 | – | – | – |
| CNCC(=O)N[C@@H](Cc1ccc(F)cc1)c1nc(C(=O)N[C@@H](CC2CCCCC2)C(=O)N[C@@H](CCCNC(=N)N)C(=O)NCc2ccccc2)c(C)o1 [Compound 7, 2-[1(S)-Sarcosineamido-2-(4-fluorophenyl)ethyl]-5-methyloxazole-4-carboxy-cyclohexylalanyl-arginine benzylamide] | 19 | 22 | – | – | – |
| Cc1oc(C(Cc2ccc(F)cc2)NC(=O)C(N)Cc2cn(Cc3ccccc3)cn2)nc1C(=O)NC(CC1CCCCC1)C(=O)NC(CCCNC(=N)N)C(=O)NCc1ccccc1 [Compound 8, 2-[1(S)-N(tau)-Benzyl-histidineamido-2-(4-fluorophenyl)ethyl]-5-methyloxazole-4-carboxy-cyclohexylalanyl-arginine benzylamide] | 13 | 5 | – | – | – |
| CC(=O)N[C@@H](Cc1ccc(F)cc1)c1nc(C(=O)N[C@@H](CC2CCCCC2)C(=O)N[C@@H](CCCNC(=N)N)C(=O)NCc2ccccc2)c(C)o1 [Compound 9, 2-[1(S)-Acetamido-2-(4-fluorophenyl)ethyl]-5-methyloxazole-4-carboxy-cyclohexylalanyl-arginine benzylamide] | 24 | 11 | – | – | – |
| Cc1oc([C@H](Cc2ccc(F)cc2)N(C)C)nc1C(=O)N[C@@H](CC1CCCCC1)C(=O)N[C@@H](CCCNC(=N)N)C(=O)NCc1ccccc1 [Compound 10, 2-[1(S)-N,N-Dimethyl-2-(4-fluorophenyl)ethyl]-5-methyloxazole-4-carboxy-cyclohexylalanyl-arginine benzylamide] | – | – | – | 11 | 17 |
